From ChEMBL document CHEMBL5050844 (2019)

What was measured:
[1] = target: E3 ubiquitin-protein ligase CBL-B (Homo sapiens, UniProt Q13191); experiment: Inhibition of N-terminal Avi-tagged human CBL-B (36 to 427 residues) incubated with 60 nM Src kinase for 1.5 hrs followed by incubation with fluorescently labeled UbcH5B-Ub for 1 hr and measured by TR-FRET assay; type: single protein
[2] = Induction of anti-CD3/CD28 antibodies-stimulated human T cell activation at 1 uM assessed fold increase in IL-2 secretion measured by ELISA assay; type: functional, T cell line
[3] = Induction of anti-CD3/CD28 antibodies-stimulated human T cell activation at 0.3 uM assessed fold increase in IL-2 secretion measured by ELISA assay; type: functional, T cell line
[4] = Induction of anti-CD3 antibodies-stimulated human T cell activation at 1 uM assessed fold increase in IL-2 secretion measured by ELISA assay; type: functional, T cell line; note: reference of the scale not given here
[5] = Induction of anti-CD3/CD28 antibodies-stimulated human T cell activation at 1 uM assessed fold increase in CD25 expression measured by ELISA assay; type: functional, T cell line
[6] = Induction of anti-CD3/CD28 antibodies-stimulated human T cell activation at 0.3 uM assessed fold increase in CD25 expression measured by ELISA assay; type: functional, T cell line
[7] = Induction of anti-CD3 antibodies-stimulated human T cell activation at 1 uM assessed fold increase in CD25 expression measured by ELISA assay; type: functional, T cell line; note: reference of the scale not given here

Sequence of E3 ubiquitin-protein ligase CBL-B (Q13191 whole entry, the tested form may be a part): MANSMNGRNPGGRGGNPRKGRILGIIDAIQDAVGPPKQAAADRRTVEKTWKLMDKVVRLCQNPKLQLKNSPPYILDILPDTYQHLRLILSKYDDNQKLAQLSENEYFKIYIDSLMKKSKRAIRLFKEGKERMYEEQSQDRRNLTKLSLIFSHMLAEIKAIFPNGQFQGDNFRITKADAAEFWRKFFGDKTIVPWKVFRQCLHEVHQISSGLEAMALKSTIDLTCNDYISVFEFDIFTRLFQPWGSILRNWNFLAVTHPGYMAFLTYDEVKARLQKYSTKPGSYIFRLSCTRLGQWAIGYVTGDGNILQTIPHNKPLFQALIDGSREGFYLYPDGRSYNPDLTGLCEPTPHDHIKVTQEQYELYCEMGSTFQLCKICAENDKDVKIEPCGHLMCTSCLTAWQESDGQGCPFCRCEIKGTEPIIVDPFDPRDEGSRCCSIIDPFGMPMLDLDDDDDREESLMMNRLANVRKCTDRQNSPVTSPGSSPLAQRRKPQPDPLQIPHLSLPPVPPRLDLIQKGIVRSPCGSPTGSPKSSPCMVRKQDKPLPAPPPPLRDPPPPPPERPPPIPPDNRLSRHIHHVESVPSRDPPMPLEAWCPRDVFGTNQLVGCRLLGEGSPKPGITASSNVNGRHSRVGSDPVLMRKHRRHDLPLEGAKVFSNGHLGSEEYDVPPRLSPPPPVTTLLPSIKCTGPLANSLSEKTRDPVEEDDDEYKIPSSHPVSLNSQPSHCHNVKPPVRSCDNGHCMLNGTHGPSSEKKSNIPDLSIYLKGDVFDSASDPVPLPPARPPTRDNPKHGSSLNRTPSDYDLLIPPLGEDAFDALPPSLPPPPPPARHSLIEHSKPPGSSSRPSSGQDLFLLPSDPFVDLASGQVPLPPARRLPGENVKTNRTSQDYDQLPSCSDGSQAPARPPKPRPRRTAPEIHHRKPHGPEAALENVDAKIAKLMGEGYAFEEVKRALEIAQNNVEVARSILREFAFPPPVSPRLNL

Row | SMILES | IC50 [1] | fold change (FC) [2] | fold change (FC) [3] | fold change (FC) [4] | fold change (FC) [5] | fold change (FC) [6] | fold change (FC) [7]
1 | CC1CN(c2cc3c(c(C(F)(F)F)c2)CN(c2cccc(C4(Cc5nncn5C)COC4)c2)C3=O)C1 | < 100 nM | 2.51 | 1.01 | 0.101 | 1.01 | 1.01 | 0.601
2 | Cn1cnnc1[C@H](F)C1(c2cccc(N3Cc4c(cc(CN5[C@H]6CC[C@H]5CC(F)C6)cc4C(F)(F)F)C3=O)c2)COC1 (stereo partly specified) | < 100 nM | >=7.5 | >=7.5 | >=0.201 | >=1.76 | >=1.76 | >=1.001
3 | Cn1cnnc1CC1(c2cccc(N3Cc4c(cc(CN5Cc6ccc(F)cc6C5)cc4C(F)(F)F)C3=O)c2)COC1 | < 100 nM | >=7.5 | 5 | >=0.201 | 1.31 | 1.31 | >=1.001
4 | CN(C)Cc1cc(C(=O)Nc2cccc(C3(Cc4nncn4C)COC3)c2)nc(C2CC2)n1 | < 100 nM | >=7.5 | 2.51 | 0.101 | 1.31 | 1.31 | >=1.001
5 | Cn1cnnc1CC1(c2cccc(N3Cc4c(cc(CN5CCC6(CC6)C(F)(F)C5)cc4C(F)(F)F)C3=O)c2)COC1 | < 100 nM | >=7.5 | 2.51 | >=0.201 | 1.31 | 1.31 | >=1.001
6 | C[C@@H](c1cc2c(c(C(F)(F)F)c1)CN(c1cccc(C3(Cc4nncn4C)COC3)c1)C2=O)N1CCC2(CC1)CC2 | < 100 nM | >=7.5 | >=7.5 | >=0.201 | 1.01 | 1.01 | >=1.001
7 | Cn1cnnc1CC1(c2cccc(N3Cc4c(cc(CN5CC[C@H]6C[C@H]65)cc4C(F)(F)F)C3=O)c2)COC1 | < 100 nM | >=7.5 | >=7.5 | >=0.201 | 1.51 | 1.51 | >=1.001
8 | CC(c1cc(C(=O)Nc2cccc(C3(Cc4nncn4C)COC3)c2)nc(C2CC2)n1)N1CCCC1 (stereo unspecified) | < 100 nM | >=7.5 | >=7.5 | >=0.201 | 1.31 | 1.31 | >=1.001
9 | Cn1cnnc1CC1(c2cccc(N3Cc4c(cc(N5CC6(CCC6(F)F)C5)cc4C(F)(F)F)C3=O)c2)COC1 | < 100 nM | 2.51 | 1.01 | <=0.05 | 1.01 | 1.01 | 0.601
10 | Cn1cnnc1CC1(c2cccc(N3Cc4c(cc(N5CCOCC5)cc4C(F)(F)F)C3=O)c2)COC1 | < 100 nM | >=7.5 | 5 | 0.101 | 1.51 | 1.31 | >=1.001
11 | C[C@H](c1cc2c(c(C(F)(F)F)c1)CN(c1cccc(C3(Cc4nncn4C)COC3)c1)C2=O)N1CC2CC2C1 (stereo partly specified) | < 100 nM | >=7.5 | >=7.5 | >=0.201 | 1.31 | 1.31 | >=1.001
12 | Cn1cnnc1CC1(c2cccc(N3Cc4c(cc(CN5CCC(C(F)F)CC5)cc4C(F)(F)F)C3=O)c2)COC1 | < 100 nM | >=7.5 | 5 | 0.151 | 1.31 | 1.31 | >=1.001
13 | Cn1cnnc1CC1(c2cccc(N3Cc4c(cc(CN5Cc6cccc(F)c6C5)cc4C(F)(F)F)C3=O)c2)COC1 | < 100 nM | >=7.5 | 2.51 | >=0.201 | 1.31 | 1.31 | >=1.001

Further lines, with some results ahead:

Row | IC50 [1] | SMILES | fold change (FC) [2] | fold change (FC) [3] | fold change (FC) [4] | fold change (FC) [5] | fold change (FC) [6] | fold change (FC) [7]
14 | < 100 nM | Cn1cnnc1CC1(c2cccc(N3Cc4c(cc(CN5CCS(=O)(=O)CC5)cc4C(F)(F)F)C3=O)c2)COC1 | 2.51 | 2.51 | 0.101 | 1.01 | 1.01 | >=1.001
15 | < 100 nM | Cn1cnnc1C(F)(F)[C@](C)(F)c1cccc(NC(=O)c2cc(CN3CC[C@H](F)C3)nc(C3CC3)n2)c1 | 5 | 2.51 | 0.051 | 1.01 | 1.01 | 0.801
16 | < 100 nM | CC(O)c1cc2c(c(C(F)(F)F)c1)CN(c1cccc(C3(Cc4nncn4C)COC3)c1)C2=O (stereo unspecified) | 2.51 | 1.01 | 0.151 | 1.01 | 1.01 | >=1.001
17 | < 100 nM | Cn1cnnc1CC1(c2cccc(N3Cc4c(cc(CN5CCCC(F)(F)C5)cc4C(F)(F)F)C3=O)c2)COC1 | >=7.5 | >=7.5 | >=0.201 | 1.51 | 1.51 | >=1.001
18 | < 100 nM | Cn1cnnc1CC1(c2cccc(NC(=O)c3cc(CN4CC[C@H](O)C4)nc(C4CC4)n3)c2)COC1 | 2.51 | 1.01 | 0.051 | 1.01 | 1.01 | 0.601
19 | < 100 nM | Cn1cnnc1CC1(c2cccc(N3Cc4c(cc(OC5CC5)cc4C(F)(F)F)C3=O)c2)COC1 | 2.51 | 1.01 | 0.151 | 1.01 | 1.01 | >=1.001
20 | < 100 nM | C[C@H](Cc1nncn1C)c1cc(C2CC2)nc(N2Cc3c(cccc3C(F)(F)F)C2=O)c1 | 2.51 | 1.01 | 0.101 | 1.01 | 1.01 | 0.801
21 | < 100 nM | C[C@@H](c1cc2c(c(C(F)(F)F)c1)CN(c1cccc(C3([C@H](F)c4nncn4C)COC3)c1)C2=O)N1CCC2(CC2)C1 (single isomer, unassigned) | >=7.5 | >=7.5 | >=0.201 | >=1.76 | >=1.76 | >=1.001
22 | < 100 nM | Cn1cnnc1CC1(c2cccc(N3Cc4c(cc(CN5CCC(C#N)CC5)cc4C(F)(F)F)C3=O)c2)COC1 | >=7.5 | 5 | >=0.201 | 1.31 | 1.31 | >=1.001
23 | < 100 nM | CC(c1cc2c(c(C3CC3)n1)CN(c1cccc(C3(Cc4nncn4C)COC3)c1)C2=O)N1CCC2(CC2)C1 (stereo unspecified) | 5 | 2.51 | 0.051 | 1.01 | 1.01 | 0.801
24 | < 100 nM | Cc1cc(C(=O)Nc2cccc(C3(C(F)(F)c4nncn4C)COC3)c2)nc(C2CC2)n1 | 5 | 2.51 | 0.101 | 1.31 | 1.01 | 0.801
25 | < 100 nM | Cn1cnnc1CC1(c2cccc(N3Cc4c(cc(CN5CCCC(F)(F)CC5)cc4C(F)(F)F)C3=O)c2)COC1 | >=7.5 | >=7.5 | >=0.201 | 1.01 | 1.01 | >=1.001
26 | < 100 nM | Cn1cnnc1CC1(c2cccc(N3Cc4c(cc(N5CC(C(F)F)C5)nc4C4CC4)C3=O)c2)COC1 | 5 | 2.51 | 0.101 | 1.01 | 1.01 | 0.801
27 | < 100 nM | Cc1cc(C(=O)Nc2cccc(C3(Cc4nncn4C)CC(F)(F)C3)c2)nc(C2CC2)n1 | >=7.5 | 5 | >=0.201 | 1.01 | 1.01 | >=1.001
28 | < 100 nM | Cn1cnnc1CC1(c2cccc(N3Cc4c(cc(CN5CCCC56COC6)cc4C(F)(F)F)C3=O)c2)COC1 | 5 | 1.01 | 0.151 | 1.31 | 1.01 | 0.801
